In the oligonucleotide strings, read from the 5' end, every base follows the letter of its sugar. An asterisk marks phosphorothioate; unmarked linkages are phosphodiester. Other units and linkages are bracketed, terminal groups are in braces. A string of capitals states the bases alone. e = 2'-O-(2-methoxyethyl) (MOE); [5mC] = 5-methylcytosine; d = 2'-deoxy (DNA)

The subject of the first data set is human Factor 7 mRNA. Kind of data set: Antisense inhibition of human Factor 7 mRNA in HepB3 cells, lipofectin, 50 nM, real-time RT-PCR. Type of data set: cell-based. The following applies: Example 1; HepB3 cells, lipofectin, 50 nM, ~24 h, relative to untreated control cells. Summed up:
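Percent inhibition, untreated cells as reference: derived from RNA collected about 24 hours post-transfection of 4,000-cell wells, with the human RTS 2927 primer probe set and adjustment for total RNA content (RIBOGREEN®).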
(Real-time PCR tracks product formation cycle by cycle.)
For the substance “407661 (antisense eT*eT*eT*eA*e[5mC]*dA*dA*dG*dA*dG*d[5mC]*dA*dG*dG*dG*eT*eG*e[5mC]*e[5mC]*eT) [compound 407661]”, the “% Inhibition (human Factor 7 mRNA)” value is 47%.
As for “407604 (antisense e[5mC]*eA*e[5mC]*eA*e[5mC]*dT*dG*dG*dT*d[5mC]*d[5mC]*d[5mC]*d[5mC]*dA*dT*e[5mC]*eA*e[5mC]*eT*eG) [compound 407604]”, the “% Inhibition (human Factor 7 mRNA)” value turned out to be 34%.
Turning to “407598 (antisense e[5mC]*e[5mC]*eA*eT*eG*dA*dT*dG*dA*dA*dA*dT*d[5mC]*dT*d[5mC]*eT*eG*e[5mC]*eA*eG) [compound 407598]”, the “% Inhibition (human Factor 7 mRNA)” value is given as 72%.
On to “407656 (antisense e[5mC]*eA*eG*e[5mC]*eA*dA*dG*dA*dG*dT*dG*d[5mC]*dA*dG*d[5mC]*eT*eT*eG*e[5mC]*e[5mC]) [compound 407656]”, for which the “% Inhibition (human Factor 7 mRNA)” value is 43%.
For the substance “407889 (antisense eT*e[5mC]*e[5mC]*eT*eG*dG*dG*dT*dT*dA*d[5mC]*dG*dA*dA*dG*eA*e[5mC]*eT*eG*e[5mC]) [compound 407889]”, the “% Inhibition (human Factor 7 mRNA)” value is given as 54%.
As to “407600 (antisense eT*eG*eA*eA*eG*d[5mC]*d[5mC]*d[5mC]*dA*dA*dG*d[5mC]*dA*dG*dA*eA*eG*eG*e[5mC]*eA) [compound 407600]”, the “% Inhibition (human Factor 7 mRNA)” value worked out at 61%.
On to “407902 (antisense e[5mC]*eA*e[5mC]*e[5mC]*e[5mC]*dA*dG*dA*dT*dG*dG*dT*dG*dT*dT*eG*eA*eT*e[5mC]*eA) [compound 407902]”, for which the “% Inhibition (human Factor 7 mRNA)” value is reported as 86%.
Still for that read-out and setting: next, “407664 (antisense e[5mC]*eA*eG*eG*eG*d[5mC]*dG*dA*dG*dG*d[5mC]*dA*dA*d[5mC]*d[5mC]*e[5mC]*e[5mC]*eG*eT*eG) [compound 407664]”: 70%; “407927 (antisense eA*eG*eG*eT*eA*dA*dG*dG*dA*dG*dG*d[5mC]*dT*d[5mC]*dA*eG*e[5mC]*eT*eG*eG) [compound 407927]”: 55%; “407638 (antisense eG*e[5mC]*e[5mC]*eA*e[5mC]*dT*d[5mC]*dG*dA*dT*dG*dT*dA*d[5mC]*dT*eG*eG*eG*eA*eG) [compound 407638]”: 0%.
Turning to “407596 (antisense eG*eA*eG*eG*e[5mC]*d[5mC]*d[5mC]*d[5mC]*dG*dG*d[5mC]*dT*dT*d[5mC]*d[5mC]*eA*e[5mC]*eG*eG*e[5mC]) [compound 407596]”, the “% Inhibition (human Factor 7 mRNA)” value worked out at 61%.
In the case of “407938 (antisense e[5mC]*eA*e[5mC]*e[5mC]*e[5mC]*dA*dG*d[5mC]*dG*dA*dA*dG*dG*dG*dA*eG*eA*eA*eA*eT) [compound 407938]”, the “% Inhibition (human Factor 7 mRNA)” value was found to be 60%.

Staying with this data set, now noted: Example 4; HepB3 cells, lipofectin, 50 nM, ~24 h, relative to untreated control.
“422191 (antisense eA*eG*e[5mC]*dG*d[5mC]*dG*dG*dA*dA*dG*dA*dA*dG*dG*dG*dA*d[5mC]*eG*eG*eA) [compound 422191]”: the “% Inhibition (human Factor 7 mRNA)” value is reported as 27%.
With “422193 (antisense eT*eG*eA*dG*d[5mC]*dG*d[5mC]*dG*dG*dA*dA*dG*dA*dA*dG*dG*dG*eA*e[5mC]*eG) [compound 422193]”, the “% Inhibition (human Factor 7 mRNA)” value is on record as 6%.
Same read-out and setting: next, “422195 (antisense eA*e[5mC]*eT*dG*dA*dG*d[5mC]*dG*d[5mC]*dG*dG*dA*dA*dG*dA*dA*dG*eG*eG*eA) [compound 422195]”: 37%.
“422273 (antisense eT*eA*d[5mC]*dT*dG*dA*dG*d[5mC]*dG*d[5mC]*dG*dG*dA*dA*dG*eA*eA*eG*eG*eG) [compound 422273]”: the “% Inhibition (human Factor 7 mRNA)” value was 0%.
In the case of “422122 (antisense eA*eG*e[5mC]*eG*e[5mC]*dG*dG*dA*dA*dG*dA*dA*dG*dG*dG*eA*e[5mC]*eG*eG*eA) [compound 422122]”, the “% Inhibition (human Factor 7 mRNA)” value is 24%.
Same read-out and setting: next, “422268 (antisense eA*eG*d[5mC]*dG*d[5mC]*dG*dG*dA*dA*dG*dA*dA*dG*dG*dG*eA*e[5mC]*eG*eG*eA) [compound 422268]”: 63%.

Staying with this data set, now noted: HepB3 cells, lipofectin, 50 nM antisense oligonucleotide, approximately 24 hours, primer probe set RTS 2927, relative to untreated control.
On to “416490 (antisense eA*e[5mC]*eT*e[5mC]*eA*dG*d[5mC]*dA*dA*dG*dA*dG*dT*dG*d[5mC]*eA*eG*e[5mC]*eT*eT) [compound 416490]”, for which the “% Inhibition of human Factor 7 mRNA levels” value turned out to be 33%.
For the substance “416539 (antisense eG*eA*e[5mC]*eA*eG*dA*dG*d[5mC]*d[5mC]*dT*dG*dA*dG*d[5mC]*dT*eT*eG*eG*e[5mC]*eA) [compound 416539]”, the “% Inhibition of human Factor 7 mRNA levels” value was found to be 53%.
Same read-out and setting: to “416567 (antisense eT*eG*eG*eT*eG*dG*d[5mC]*dA*d[5mC]*d[5mC]*dA*dG*dA*dT*dG*eT*e[5mC]*eT*eG*eA) [compound 416567]” belongs 2%; to “416444 (antisense eA*e[5mC]*eA*eG*eT*dT*d[5mC]*d[5mC]*dG*dG*d[5mC]*d[5mC]*d[5mC]*dT*d[5mC]*eG*eA*eA*eG*eG) [compound 416444]”, 24%.
Regarding “416542 (antisense e[5mC]*eA*eG*eG*eG*dT*dG*d[5mC]*d[5mC]*d[5mC]*dA*dT*d[5mC]*d[5mC]*dT*eA*eG*eT*e[5mC]*eA) [compound 416542]”, the “% Inhibition of human Factor 7 mRNA levels” value stood at 56%.
Regarding “416453 (antisense eG*eA*eT*eT*eT*dT*dG*dT*d[5mC]*dG*dA*dA*dA*d[5mC]*dA*eG*eT*eG*eG*eG) [compound 416453]”, the “% Inhibition of human Factor 7 mRNA levels” value was 45%.
On to “416561 (antisense eG*eG*eT*eG*eT*dG*dT*dT*d[5mC]*d[5mC]*d[5mC]*dA*dT*dA*dA*eA*eA*e[5mC]*eT*eT) [compound 416561]”, for which the “% Inhibition of human Factor 7 mRNA levels” value is listed as 16%.
On the same count and under the same terms, next, “416497 (antisense e[5mC]*eG*eT*eG*e[5mC]*dA*dG*dG*dT*dG*dT*dT*dA*dA*dG*eG*eT*eG*eT*eG) [compound 416497]”: 0%; “416565 (antisense e[5mC]*eA*eG*eG*eA*dT*dG*d[5mC]*dT*d[5mC]*dA*dT*dG*dG*d[5mC]*eA*eG*eA*e[5mC]*eA) [compound 416565]”: 0%; “416465 (antisense e[5mC]*eA*e[5mC]*eT*eG*dT*d[5mC]*d[5mC]*d[5mC]*d[5mC]*d[5mC]*dT*dT*dG*d[5mC]*eA*eG*eG*eA*eG) [compound 416465]”: 51%.
With “416447 (antisense e[5mC]*eA*eT*eG*eG*dA*dT*dA*dT*dT*d[5mC]*dA*dA*d[5mC]*dT*eG*eT*eG*eG*eG) [compound 416447]”, the “% Inhibition of human Factor 7 mRNA levels” value came to 17%.

The same data set, now with this note: HepB3 cells; gapmers (5-10-5, 3-14-3, 2-13-5 MOE) targeted to nucleobases 4868 to 4899 of SEQ ID NO: 1.
As to “422290 (antisense eT*e[5mC]*dT*dG*d[5mC]*dA*dG*dG*dA*dG*d[5mC]*dG*dG*d[5mC]*d[5mC]*eT*eA*eA*eA*eT) [compound 422290]”, the “% Inhibition of human Factor 7 mRNA levels” value is given as 50%.

Still in this data set, the particulars now being: HepB3 cells; gapmers targeted to nucleobases 11830 to 11869 of SEQ ID NO: 1 (Table 9).
As to “422247 (antisense eG*e[5mC]*dT*dG*dA*dG*dG*dA*dG*dA*d[5mC]*dA*dA*dT*dG*eG*eT*e[5mC]*eA*eG) [compound 422247]”, the “% Inhibition of human Factor 7 mRNA levels” value was determined as 36%.
Regarding “422236 (antisense eA*eA*dT*dG*dG*dT*d[5mC]*dA*dG*dG*dG*d[5mC]*dT*dG*dG*eT*eT*eT*eT*eG) [compound 422236]”, the “% Inhibition of human Factor 7 mRNA levels” value came to 44%.
In the case of “422237 (antisense e[5mC]*eA*dA*dT*dG*dG*dT*d[5mC]*dA*dG*dG*dG*d[5mC]*dT*dG*eG*eT*eT*eT*eT) [compound 422237]”, the “% Inhibition of human Factor 7 mRNA levels” value was found to be 50%.
On to “422094 (antisense e[5mC]*eA*eA*eT*eG*dG*dT*d[5mC]*dA*dG*dG*dG*d[5mC]*dT*dG*eG*eT*eT*eT*eT) [compound 422094]”, for which the “% Inhibition of human Factor 7 mRNA levels” value is 48%.

The same data set, now with this note: HepB3 cells; gapmers targeted to nucleobases 13760 to 13789 of SEQ ID NO: 1 (Table 10).
Regarding “422254 (antisense e[5mC]*e[5mC]*d[5mC]*dG*d[5mC]*d[5mC]*dG*dG*d[5mC]*dT*d[5mC]*dT*dG*d[5mC]*dT*e[5mC]*eA*eT*e[5mC]*e[5mC]) [compound 422254]”, the “% Inhibition of human Factor 7 mRNA levels” value came out at 42%.
As for “422110 (antisense eA*e[5mC]*e[5mC]*e[5mC]*eG*d[5mC]*d[5mC]*dG*dG*d[5mC]*dT*d[5mC]*dT*dG*d[5mC]*eT*e[5mC]*eA*eT*e[5mC]) [compound 422110]”, the “% Inhibition of human Factor 7 mRNA levels” value is recorded as 53%.
In the case of “422182 (antisense e[5mC]*eG*e[5mC]*d[5mC]*dA*d[5mC]*d[5mC]*d[5mC]*dG*d[5mC]*d[5mC]*dG*dG*d[5mC]*dT*d[5mC]*dT*eG*e[5mC]*eT) [compound 422182]”, the “% Inhibition of human Factor 7 mRNA levels” value is recorded as 11%.
For “422109 (antisense e[5mC]*e[5mC]*e[5mC]*eG*e[5mC]*d[5mC]*dG*dG*d[5mC]*dT*d[5mC]*dT*dG*d[5mC]*dT*e[5mC]*eA*eT*e[5mC]*e[5mC]) [compound 422109]”, the “% Inhibition of human Factor 7 mRNA levels” value amounted to 68%.

The same data set, now with this note: HepB3 cells; gapmers targeted to nucleobases 14707 to 14732 of SEQ ID NO: 1 (Table 11).
Take “422205 (antisense eA*eG*e[5mC]*dA*dG*d[5mC]*d[5mC]*dT*dG*dA*dG*dG*d[5mC]*d[5mC]*dA*dG*d[5mC]*eA*eG*eA) [compound 422205]”: the “% Inhibition of human Factor 7 mRNA levels” value is given as 63%.
Turning to “422132 (antisense eG*e[5mC]*eA*eG*e[5mC]*d[5mC]*dT*dG*dA*dG*dG*d[5mC]*d[5mC]*dA*dG*e[5mC]*eA*eG*eA*eT) [compound 422132]”, the “% Inhibition of human Factor 7 mRNA levels” value was 54%.
For the substance “422279 (antisense eA*eG*d[5mC]*d[5mC]*dT*dG*dA*dG*dG*d[5mC]*d[5mC]*dA*dG*d[5mC]*dA*eG*eA*eT*e[5mC]*eA) [compound 422279]”, the “% Inhibition of human Factor 7 mRNA levels” value came out at 56%.
